IC50 data for 19 molecules are collected here from US20230322767A1, “ARYL SUBSTITUTED PYRROLO-PYRIDINONES AND THERAPEUTIC USES THEREOF” (Bayer Aktiengesellschaft, priority 2020, published 2023).

Common to all, as to format: biochemical
The target in test [1] is wild-type Epidermal Growth Factor Receptor (EGFR) (Homo sapiens (Human), UniProt P00533). The test is described as follows: WT-EGFR Kinase Assay (TR-FRET, 2 mM ATP). In short, it runs like this: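 TR-FRET read-out of biotinylated peptide phosphorylation, taken as the 665/622 nm ratio after EDTA stop and 1 h detection at 22° C. Kinase: GST fusion of human EGFR aa R669–A1210, given a 15 min compound pre-binding step; reaction run at 2 mM ATP.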
Sequence of wild-type Epidermal Growth Factor Receptor (EGFR) (P00533 669-1210): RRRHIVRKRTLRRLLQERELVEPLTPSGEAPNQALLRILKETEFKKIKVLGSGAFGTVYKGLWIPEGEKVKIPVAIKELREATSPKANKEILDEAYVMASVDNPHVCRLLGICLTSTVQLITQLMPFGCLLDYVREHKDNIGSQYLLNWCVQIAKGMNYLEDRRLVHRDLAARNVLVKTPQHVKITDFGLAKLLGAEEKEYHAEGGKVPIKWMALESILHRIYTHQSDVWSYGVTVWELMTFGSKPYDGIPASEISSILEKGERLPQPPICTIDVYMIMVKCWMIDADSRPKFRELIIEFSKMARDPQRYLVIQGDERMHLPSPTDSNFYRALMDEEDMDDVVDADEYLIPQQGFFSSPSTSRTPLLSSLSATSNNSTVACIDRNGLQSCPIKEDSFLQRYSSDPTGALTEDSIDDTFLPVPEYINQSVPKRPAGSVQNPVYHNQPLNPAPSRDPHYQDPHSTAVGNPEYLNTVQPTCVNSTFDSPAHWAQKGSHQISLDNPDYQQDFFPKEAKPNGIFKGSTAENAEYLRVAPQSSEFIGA
Background: TR-FRET usually uses a lanthanide donor and a delayed reading to cut background.

A further test has as its target CSNK1A1 (Homo sapiens (Human), UniProt P48729). As to the kind of experiment: CSNK1A1 Assay 2 (ADP-Glo, 1 μM ATP). Conditions: median, read-out: CSNK1A1 Assay 2 IC50 [mol/l] (median). The procedure, abridged:
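ADP-Glo luminescence, taken as ADP formed, reports activity against biotinylated phospho-peptide substrate biotin-Ahx-KRRRAL-pS-VASLPGL at 1 μM ATP.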
In general terms: ADP-Glo first removes unused ATP, then detects ADP through luciferase.

The target of the next test is CSNK1D (Homo sapiens (Human), UniProt P48730). As to the kind of experiment: CSNK1D Assay (ADP-Glo, 1 μM ATP). Conditions: median, read-out: CSNK1D IC50 [mol/l] (median). The procedure, abridged:
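Enzyme preincubated with compound 15 min at 22° C in 50 mM HEPES pH 7.5 buffer with 10 mM MgCl2, 1 mM DTT; kinase reaction run at 1 μM ATP with biotinylated peptide substrate. ADP formed was detected by ADP-Glo luminescence as the measure of activity.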

Setting [2] is: EGFR Wildtyp 2 mM ATP IC50 [mol/l] (median), median or individual measurements.
Where [3] appears, read: read-out: EGFR Wildtyp 2 mM ATP IC50 [mol/l] (median), median or individual measurements.

Like-named read-outs stand apart in the source and are kept apart here.

Sequence of CSNK1D (P48730 whole entry): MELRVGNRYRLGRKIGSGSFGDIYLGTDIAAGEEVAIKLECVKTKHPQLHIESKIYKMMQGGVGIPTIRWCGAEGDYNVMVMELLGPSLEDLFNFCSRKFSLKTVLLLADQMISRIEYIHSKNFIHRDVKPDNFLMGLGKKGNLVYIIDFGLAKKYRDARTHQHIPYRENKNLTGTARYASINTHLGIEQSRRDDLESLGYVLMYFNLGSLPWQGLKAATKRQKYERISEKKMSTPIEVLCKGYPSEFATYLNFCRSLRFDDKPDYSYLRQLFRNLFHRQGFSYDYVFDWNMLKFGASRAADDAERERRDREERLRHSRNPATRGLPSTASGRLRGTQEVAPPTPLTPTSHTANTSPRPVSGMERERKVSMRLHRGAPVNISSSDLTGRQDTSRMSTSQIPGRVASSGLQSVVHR
Sequence of CSNK1A1 (P48729 whole entry): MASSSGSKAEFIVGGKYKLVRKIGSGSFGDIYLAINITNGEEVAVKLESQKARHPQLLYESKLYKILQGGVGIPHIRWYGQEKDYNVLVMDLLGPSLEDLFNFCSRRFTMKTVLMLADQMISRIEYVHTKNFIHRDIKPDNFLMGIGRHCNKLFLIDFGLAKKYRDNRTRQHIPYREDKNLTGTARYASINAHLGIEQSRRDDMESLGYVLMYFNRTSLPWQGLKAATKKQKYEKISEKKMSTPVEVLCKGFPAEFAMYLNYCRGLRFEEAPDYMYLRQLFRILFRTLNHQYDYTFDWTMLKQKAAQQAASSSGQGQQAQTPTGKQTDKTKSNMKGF

As to `CC1(C)Cc2[nH]c(-c3ccnc(NC(=O)Cc4ccc(F)cc4)c3)c(-c3ccccc3F)c2C(=O)N1` [Example 84, 2-(4-fluorophenyl)-N-{4-[3-(2-fluorophenyl)-6,6-dimethyl-4-oxo-4,5,6,7-tetrahydro-1H-pyrrolo[3,2-c]pyridin-2-yl]pyridin-2-yl}acetamide], the IC50 in test [1] (setting [2]) is over 20000 nM; in test [1] (read-out: EGFR Wildtyp 2 mM ATP IC50 [mol/l] (median), median or individual measurements, listed as 084) it was 16000 nM; at CSNK1A1, 3.4 nM; at CSNK1D, 4.8 nM.
Turning to `CC(C(=O)Nc1cc(-c2[nH]c3c(c2-c2cccnc2)C(=O)NC(C)(C)C3)ccn1)c1ccc(F)cc1` (racemic) [Example 97, N-{4-[6,6-dimethyl-4-oxo-3-(pyridin-3-yl)-4,5,6,7-tetrahydro-1H-pyrrolo[3,2-c]pyridin-2-yl]pyridin-2-yl}-2-(4-fluorophenyl)propanamide], the values for the IC50 (in test [1] (setting [2]); on CSNK1A1; at CSNK1D) were over 20000 nM, 8.1 nM and 14 nM, respectively.
For `O=C(Nc1cc(-c2[nH]c3c(Cl)cn(C4CC4)c(=O)c3c2-c2ccc(F)cc2)ccn1)C(CC(F)F)c1ccc(F)cc1` (racemic) [Example 161, (2RS)—N-{4-[7-chloro-5-cyclopropyl-3-(4-fluorophenyl)-4-oxo-4,5-dihydro-1H-pyrrolo[3,2-c]pyridin-2-yl]pyridin-2-yl}-4,4-difluoro-2-(4-fluorophenyl)butanamide], in that order: over 20000 nM, 20 nM and 11 nM.
Take `Cn1cc(Cl)c2[nH]c(-c3ccnc(NC(=O)Cc4ccc(F)cc4)c3)c(-c3ccccc3)c2c1=O` [Example 79, N-[4-(7-chloro-5-methyl-4-oxo-3-phenyl-4,5-dihydro-1H-pyrrolo[3,2-c]pyridin-2-yl)pyridin-2-yl]-2-(4-fluorophenyl)acetamide]: the figures for the IC50 (in test [1] (setting [3]); on CSNK1A1; on CSNK1D) were over 20000 nM, 5.1 nM and 4.8 nM, respectively.
Take `CC1(C)Cc2[nH]c(-c3ccnc(NC(=O)Cc4ccc(F)cc4)c3)c(-c3cccnc3)c2C(=O)N1` [Example 93, N-{4-[6,6-dimethyl-4-oxo-3-(pyridin-3-yl)-4,5,6,7-tetrahydro-1H-pyrrolo[3,2-c]pyridin-2-yl]pyridin-2-yl}-2-(4-fluorophenyl)acetamide]: the IC50 in test [1] (setting [3]) was over 20000 nM; at CSNK1A1 it was 4 nM; at CSNK1D it was 9.3 nM.
Turning to `CN1CC(CC2CC2)c2[nH]c(-c3ccnc(NC(=O)C(CC(F)F)c4ccc(F)cc4)c3)c(-c3ccc(F)cc3)c2C1=O` (stereo not drawn) [Example 64, N-{4-[7-(cyclopropylmethyl)-3-(4-fluorophenyl)-5-methyl-4-oxo-4,5,6,7-tetrahydro-1H-pyrrolo[3,2-c]pyridin-2-yl]pyridin-2-yl}-4,4-difluoro-2-(4-fluorophenyl)butanamide], the IC50 is over 20000 nM in test [1] (setting [3]), 8.5 nM on CSNK1A1 and 4.8 nM at CSNK1D.
Turning to `CN1C(=O)c2c([nH]c(-c3ccnc(NC(=O)C(CC(F)F)c4ccc(F)cc4)c3)c2-c2ccc(F)cc2)CC12CC2` (racemic) [Example 81, 4,4-difluoro-2-(4-fluorophenyl)-N-{4-[3′-(4-fluorophenyl)-5′-methyl-4′-oxo-1′,4′,5′,7′-tetrahydro-spiro[cyclopropane-1,6′-pyrrolo[3,2-c]pyridin]-2′-yl]pyridin-2-yl}butanamide], the IC50 in test [1] (setting [2]) was over 20000 nM; at CSNK1A1, 4.6 nM; on CSNK1D, 4.3 nM.
For `Cn1ccc2[nH]c(-c3ccnc(NC(=O)C(CC(F)F)c4ccc(F)cc4)c3)c(-c3cccnc3)c2c1=O` (racemic) [Example 118, 4,4-difluoro-2-(4-fluorophenyl)-N-{4-[5-methyl-4-oxo-3-(pyridin-3-yl)-4,5-dihydro-1H-pyrrolo[3,2-c]pyridin-2-yl]pyridin-2-yl}butanamide], in that order: over 20000 nM, 8.6 nM and 12 nM.
As to `CC(C(=O)Nc1cc(-c2[nH]c3ccn(C)c(=O)c3c2-c2cc(F)c(F)c(F)c2)ccn1)c1ccc(F)cc1` (racemic) [Example 117, 2-(4-fluorophenyl)-N-{4-[5-methyl-4-oxo-3-(3,4,5-trifluorophenyl)-4,5-dihydro-1H-pyrrolo[3,2-c]pyridin-2-yl]pyridin-2-yl}propanamide], the IC50 in test [1] (setting [2]) is over 20000 nM; on CSNK1A1 it was 4.7 nM; at CSNK1D, 7.4 nM.
For `CC(C(=O)Nc1cc(-c2[nH]c3ccn(C)c(=O)c3c2-c2ccccc2)ccn1)c1ccc(F)cc1` (single isomer, unassigned) [Example 105, 2-(4-fluorophenyl)-N-[4-(5-methyl-4-oxo-3-phenyl-4,5-dihydro-1H-pyrrolo[3,2-c]pyridin-2-yl)pyridin-2-yl]propanamide] the same measures were 8220 nM, 0.71 nM and 1.5 nM.
For `CC(C(=O)Nc1cc(-c2[nH]c3ccn(C)c(=O)c3c2-c2ccccc2)ccn1)c1ccc(F)cc1` (single isomer, unassigned) [Example 104, 2-(4-fluorophenyl)-N-[4-(5-methyl-4-oxo-3-phenyl-4,5-dihydro-1H-pyrrolo[3,2-c]pyridin-2-yl)pyridin-2-yl]propanamide], in that order: over 20000 nM, 7 nM and 5.1 nM.
For `CC(C(=O)Nc1cc(-c2[nH]c3ccn(C)c(=O)c3c2-c2ccsc2)ccn1)c1ccc(F)cc1` (racemic) [Example 131, 2-(4-fluorophenyl)-N-{4-[5-methyl-4-oxo-3-(3-thienyl)-4,5-dihydro-1H-pyrrolo[3,2-c]pyridin-2-yl]pyridin-2-yl}propanamide] the same measures were over 20000 nM, 7 nM and 10 nM.
As for `Cc1c(-c2ccnc(NC(=O)C(C)c3ccc(F)cc3)c2)[nH]c2ccn(C)c(=O)c12` (racemic) [Example 132, N-[4-(3,5-dimethyl-4-oxo-4,5-dihydro-1H-pyrrolo[3,2-c]pyridin-2-yl)pyridin-2-yl]-2-(4-fluorophenyl)propanamide], the IC50 is over 20000 nM in test [1] (setting [2]), 6.3 nM on CSNK1A1 and 11 nM on CSNK1D.
Consider `O=C(Nc1cc(-c2[nH]c3ccn(C4CC4)c(=O)c3c2-c2ccccc2)ccn1)C(CC(F)F)c1ccc(F)cc1` (single isomer, unassigned) [Example 158, (2R or S)—N-[4-(5-cyclopropyl-4-oxo-3-phenyl-4,5-dihydro-1H-pyrrolo[3,2-c]pyridin-2-yl)pyridin-2-yl]-4,4-difluoro-2-(4-fluorophenyl)butanamide], for which the IC50 in test [1] (setting [3]) was over 20000 nM; on CSNK1A1, 3.2 nM; at CSNK1D, 5.1 nM.
Turning to `CC(C(=O)Nc1cc(-c2[nH]c3c(c2-c2ccc(Cl)cc2)C(=O)NC(C)(C)C3)ccn1)c1ccc(F)cc1` (racemic) [Example 89, N-{4-[3-(4-chlorophenyl)-6,6-dimethyl-4-oxo-4,5,6,7-tetrahydro-1H-pyrrolo[3,2-c]pyridin-2-yl]pyridin-2-yl}-2-(4-fluorophenyl)propanamide], the figures for the IC50 (in test [1] (setting [2]); on CSNK1A1; on CSNK1D) were over 20000 nM, 6.8 nM and 4.3 nM, respectively.
Take `CC(C(=O)Nc1cc(-c2[nH]c3ccn(C)c(=O)c3c2-c2ccc(Cl)s2)ccn1)c1ccc(F)cc1` (racemic) [Example 122, N-{4-[3-(5-chloro-2-thienyl)-5-methyl-4-oxo-4,5-dihydro-1H-pyrrolo[3,2-c]pyridin-2-yl]pyridin-2-yl}-2-(4-fluorophenyl)propanamide]: the IC50 in test [1] (setting [2]) was over 5710 nM; in test [1] (setting [3]), over 5710 nM; at CSNK1A1, 3.6 nM; on CSNK1D, 9 nM.
Take `CN1CC(C)(C)c2[nH]c(-c3ccnc(NC(=O)C(CC(F)F)c4ccc(F)cc4)c3)c(-c3ccccc3)c2C1=O` (single isomer, unassigned; (-)) [Example 151, (−)-4,4-difluoro-2-(4-fluorophenyl)-N-[4-(5,7,7-trimethyl-4-oxo-3-phenyl-4,5,6,7-tetrahydro-1H-pyrrolo[3,2-c]pyridin-2-yl)pyridin-2-yl]butanamide]: the figures for the IC50 (in test [1] (setting [2]); on CSNK1A1; on CSNK1D) were over 20000 nM, 17 nM and 19 nM, respectively.
For `CC(C(=O)Nc1cc(-c2[nH]c3ccn(C)c(=O)c3c2-c2ccco2)ccn1)c1ccc(F)cc1` (racemic) [Example 116, 2-(4-fluorophenyl)-N-{4-[3-(2-furyl)-5-methyl-4-oxo-4,5-dihydro-1H-pyrrolo[3,2-c]pyridin-2-yl]pyridin-2-yl}propanamide], the IC50 in test [1] (setting [2]) is over 5710 nM; in test [1] (setting [3]), over 5710 nM; on CSNK1A1 it was 3.3 nM; on CSNK1D it was 7.8 nM.
On to `O=C(Nc1cc(-c2[nH]c3ccn(C4CC4)c(=O)c3c2-c2ccccn2)ccn1)C(CC(F)F)c1ccc(F)cc1` (racemic) [Example 160, (2RS)—N-{4-[5-cyclopropyl-4-oxo-3-(pyridin-2-yl)-4,5-dihydro-1H-pyrrolo[3,2-c]pyridin-2-yl]pyridin-2-yl}-4,4-difluoro-2-(4-fluorophenyl)butanamide], for which the IC50 in test [1] (setting [2]) was over 20000 nM; on CSNK1A1 it was 8.7 nM; at CSNK1D, 10 nM.
